# Literature values in patent publication US20260174880A1, “ELECTROPHILIC REACTIVE LINKERS FOR LABELING OF POLYPEPTIDES AND METHODS OF USE THEREOF” (The Brigham and Women's Hospital, Inc., priority 2023, published 2026).
# Like-named read-outs stand apart in the source and are kept apart here.
# Columns and labels:
# [1] = system: NF- B Pathway; conditions: at 5 μM
# [2] = biological target: T1, Recombinant PKC (Homo sapiens, UniProt Q05513); conditions: for % … 62.5 μM (cell…): at 62.5 μM
# T1 sequence (Q05513 1-592): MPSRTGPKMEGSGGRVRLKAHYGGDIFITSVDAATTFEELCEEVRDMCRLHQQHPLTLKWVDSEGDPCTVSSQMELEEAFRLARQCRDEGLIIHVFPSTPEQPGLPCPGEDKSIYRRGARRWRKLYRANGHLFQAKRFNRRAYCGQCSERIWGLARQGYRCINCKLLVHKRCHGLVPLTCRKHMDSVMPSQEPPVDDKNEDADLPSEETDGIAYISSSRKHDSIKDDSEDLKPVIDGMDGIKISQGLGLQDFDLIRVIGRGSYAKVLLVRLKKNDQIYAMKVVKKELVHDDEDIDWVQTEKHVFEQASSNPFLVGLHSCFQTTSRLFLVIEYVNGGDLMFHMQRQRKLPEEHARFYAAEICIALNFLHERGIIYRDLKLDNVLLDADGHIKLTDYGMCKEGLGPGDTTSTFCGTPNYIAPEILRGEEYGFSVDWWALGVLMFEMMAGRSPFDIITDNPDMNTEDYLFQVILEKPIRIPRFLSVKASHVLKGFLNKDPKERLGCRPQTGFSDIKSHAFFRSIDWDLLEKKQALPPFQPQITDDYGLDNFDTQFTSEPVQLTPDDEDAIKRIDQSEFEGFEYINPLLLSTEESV
# [3] = biological target: AKT1 (Homo sapiens, UniProt P31749); conditions: the 24th table, the 25th table
# [4] = biological target: T2, PDK1 (Homo sapiens, UniProt O15530); conditions: the 35th table; read-out: AC…
# T2 sequence (O15530 1-556): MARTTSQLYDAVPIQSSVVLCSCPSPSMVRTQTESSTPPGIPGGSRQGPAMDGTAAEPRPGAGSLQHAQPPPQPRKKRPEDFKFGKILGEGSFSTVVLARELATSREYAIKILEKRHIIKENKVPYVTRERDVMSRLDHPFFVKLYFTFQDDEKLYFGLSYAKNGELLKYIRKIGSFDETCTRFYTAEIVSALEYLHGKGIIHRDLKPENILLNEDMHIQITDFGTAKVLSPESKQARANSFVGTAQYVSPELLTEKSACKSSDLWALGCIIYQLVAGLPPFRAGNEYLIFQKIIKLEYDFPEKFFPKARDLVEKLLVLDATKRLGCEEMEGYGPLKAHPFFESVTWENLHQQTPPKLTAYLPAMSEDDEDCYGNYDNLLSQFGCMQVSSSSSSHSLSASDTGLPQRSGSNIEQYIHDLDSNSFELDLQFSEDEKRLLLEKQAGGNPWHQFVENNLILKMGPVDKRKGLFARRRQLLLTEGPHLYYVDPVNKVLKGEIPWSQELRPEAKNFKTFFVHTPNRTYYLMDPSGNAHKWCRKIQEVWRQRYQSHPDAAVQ
# [5] = biological target: T2, PDK1; conditions: for T…: the 35th table c7; for …G: the 35th table c8
# [6] = system: Akt; conditions: the 26th table
# [7] = system: NF-κB dependent transcription
# [8] = biological target: MEK1 (Homo sapiens, UniProt Q02750)
# [9] = biological target: MEK2 (Homo sapiens, UniProt P36507)
# [10] = system: other kinases; conditions: at 1000 nM EAI045
# [11] = system: Molt-4 (T cell acute lymphoblastic leukemia) xenografts; conditions: SCID mice
# [12] = biological target: T2, PDK1
# [13] = system: MERS-COV; conditions: in vitro
# [14] = system: C26
# [15] = biological target: T3, Aurora A (Homo sapiens, UniProt O14965); conditions: the 30th table
# T3 sequence (O14965 1-403): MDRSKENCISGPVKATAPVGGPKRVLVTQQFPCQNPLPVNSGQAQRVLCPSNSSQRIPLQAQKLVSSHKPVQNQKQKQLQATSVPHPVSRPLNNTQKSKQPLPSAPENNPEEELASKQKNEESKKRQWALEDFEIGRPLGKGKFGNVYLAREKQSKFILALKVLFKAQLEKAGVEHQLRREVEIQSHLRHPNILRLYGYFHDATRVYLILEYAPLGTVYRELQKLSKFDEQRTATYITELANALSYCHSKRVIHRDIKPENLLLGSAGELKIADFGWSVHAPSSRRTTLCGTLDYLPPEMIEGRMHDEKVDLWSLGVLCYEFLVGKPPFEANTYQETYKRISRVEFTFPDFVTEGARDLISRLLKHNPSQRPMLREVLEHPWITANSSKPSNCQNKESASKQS
# [16] = not given; remark: listed apart in the source
# [17] = system: breast carcinoma, prostate carcinoma, colon carcinoma and pancreatic carcinoma xenografts; conditions: in vivo
# [18] = biological target: p38α MAPK (Homo sapiens, UniProt Q16539)
# p38α MAPK, sequence (Q16539 whole entry): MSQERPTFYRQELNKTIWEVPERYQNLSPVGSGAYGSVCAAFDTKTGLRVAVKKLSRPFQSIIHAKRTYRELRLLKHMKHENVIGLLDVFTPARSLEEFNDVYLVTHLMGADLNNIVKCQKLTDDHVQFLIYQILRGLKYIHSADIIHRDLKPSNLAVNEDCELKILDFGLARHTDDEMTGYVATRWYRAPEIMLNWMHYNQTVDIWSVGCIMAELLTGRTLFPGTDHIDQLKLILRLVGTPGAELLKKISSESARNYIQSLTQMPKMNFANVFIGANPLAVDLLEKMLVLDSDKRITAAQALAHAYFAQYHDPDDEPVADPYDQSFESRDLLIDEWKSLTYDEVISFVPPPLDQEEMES
# AKT1, sequence (P31749 whole entry): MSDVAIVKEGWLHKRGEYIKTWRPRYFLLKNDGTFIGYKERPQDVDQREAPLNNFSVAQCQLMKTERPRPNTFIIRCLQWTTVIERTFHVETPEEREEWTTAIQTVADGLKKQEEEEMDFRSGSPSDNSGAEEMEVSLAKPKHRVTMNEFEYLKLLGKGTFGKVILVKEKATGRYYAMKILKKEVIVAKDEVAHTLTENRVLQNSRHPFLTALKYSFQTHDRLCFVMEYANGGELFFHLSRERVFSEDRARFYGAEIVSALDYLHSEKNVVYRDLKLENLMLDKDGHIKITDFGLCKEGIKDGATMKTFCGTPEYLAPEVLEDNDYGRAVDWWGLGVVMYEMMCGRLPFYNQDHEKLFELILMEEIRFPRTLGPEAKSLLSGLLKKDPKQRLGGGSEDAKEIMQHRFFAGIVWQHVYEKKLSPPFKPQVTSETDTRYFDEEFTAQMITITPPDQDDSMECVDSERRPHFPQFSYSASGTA
# MEK1, sequence (Q02750 whole entry): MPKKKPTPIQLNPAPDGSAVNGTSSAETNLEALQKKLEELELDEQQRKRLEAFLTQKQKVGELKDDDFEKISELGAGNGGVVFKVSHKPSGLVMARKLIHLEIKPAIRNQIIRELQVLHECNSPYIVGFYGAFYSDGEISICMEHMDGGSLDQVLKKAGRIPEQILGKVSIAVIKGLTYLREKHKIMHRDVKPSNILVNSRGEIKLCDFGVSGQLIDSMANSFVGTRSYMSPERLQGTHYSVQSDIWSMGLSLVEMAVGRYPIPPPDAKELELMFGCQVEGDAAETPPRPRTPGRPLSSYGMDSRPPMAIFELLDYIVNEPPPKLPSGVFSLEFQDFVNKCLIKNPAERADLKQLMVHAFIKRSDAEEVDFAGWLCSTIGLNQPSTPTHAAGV
# MEK2, sequence (P36507 whole entry): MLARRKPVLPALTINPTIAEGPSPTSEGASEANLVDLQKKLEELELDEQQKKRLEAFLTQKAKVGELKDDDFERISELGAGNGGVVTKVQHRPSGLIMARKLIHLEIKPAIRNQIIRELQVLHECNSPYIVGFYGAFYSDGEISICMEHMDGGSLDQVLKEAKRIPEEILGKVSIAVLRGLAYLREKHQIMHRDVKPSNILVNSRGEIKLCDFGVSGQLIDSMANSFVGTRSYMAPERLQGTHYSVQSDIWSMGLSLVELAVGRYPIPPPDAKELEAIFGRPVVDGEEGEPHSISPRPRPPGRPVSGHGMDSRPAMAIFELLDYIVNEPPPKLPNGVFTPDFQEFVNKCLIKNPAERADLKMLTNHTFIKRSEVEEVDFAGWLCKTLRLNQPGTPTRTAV
compound,measurement,setting,value
CC(C)(C)C1=NN(c2ccc(Cl)cc2)C(c2ccc(O)cc2)C1 (centres unmarked) [1a],"% … 5 μM (NF…, U… cells)",[1],75.1%
CC(C)(C)C1=NN(c2ccc(Br)cc2)C(c2ccc(O)cc2)C1 (centres unmarked) [1c],% … 62.5 μM (cell…),[2],93.2%
CC(C)(C)C1=NN(c2ccc(C(F)(F)F)cc2)C(c2ccc(O)cc2)C1 (centres unmarked) [1d],% … 62.5 μM (cell…),[2],94.2%
Cc1ccc(N2N=C(C(C)(C)C)CC2c2ccc(O)cc2)cc1 (centres unmarked) [1e],"% … 5 μM (NF…, U… cells)",[1],62.9%
CC(C)(C)C1=NN(c2ccc(C(=O)O)cc2)C(c2ccc(O)cc2)C1 (centres unmarked) [1g],"% … 5 μM (NF…, U… cells)",[1],40.7%
CC(C)(C)C1=NN(c2cccc(Cl)c2)C(c2ccc(O)cc2)C1 (centres unmarked) [1h],IC50,[2],3.2 µM
same,% … 62.5 μM (cell…),[2],96.8%
same,"% … 5 μM (NF…, U… cells)",[1],64.6%
CC(C)(C)C1=NN(c2cccc(C(F)(F)F)c2)C(c2ccc(O)cc2)C1 (centres unmarked) [1j],% … 62.5 μM (cell…),[2],96.1%
Cc1cccc(N2N=C(C(C)(C)C)CC2c2ccc(O)cc2)c1 (centres unmarked) [1k],% … 62.5 μM (cell…),[2],91.7%
same,"% … 5 μM (NF…, U… cells)",[1],71.7%
CC(C)(C)C1=NN(c2ccc(Cl)cc2Cl)C(c2ccc(O)cc2)C1 (centres unmarked) [1n],% … 62.5 μM (cell…),[2],71.0%
Cc1ccc(N2N=C(C(C)(C)C)CC2c2ccc(O)cc2)c(C)c1 (centres unmarked) [1p],% … 62.5 μM (cell…),[2],59.9%
same,"% … 5 μM (NF…, U… cells)",[1],41.5%
CC(C)(C)c1ccc(-n2c(-c3ccncc3)nc3cccnc32)cc1 [3a],IC50,[3],> 300 µM
COc1ccccc1Cn1c(-c2cccnc2N)nc2cccnc21 [3c],IC50,[3],38 µM
NCc1ccc(-n2c(-c3cccnc3)nc3cccnc32)cc1 [5b],IC50,[3],8.8 µM
O=C(O)/C=C(/CCc1ccc(Cl)c(Cl)c1)c1ccccc1 [7Z],EC50,[4],2.8 µM
same,…H…,[5]; the 35th table c6,-3.71 kcal/mol
same,T…,[5],11.7 kJ/mol
same,…G,[5],-27.4 kJ/mol
same,…H…,[5]; the 35th table c9,56.6%
O=C(O)/C=C(/CCc1ccc(Cl)cc1Cl)c1ccccc1 [8Z],EC50,[4],4.7 µM
same,…H…,[5]; the 35th table c6,-2.08 kcal/mol
same,T…,[5],20.6 kJ/mol
same,…G,[5],-29.6 kJ/mol
same,…H…,[5]; the 35th table c9,29.5%
CC(=O)NCc1ccc(-n2c(-c3cccnc3N)nc3cccnc32)cc1 [8d],IC50,[3],0.81 µM
Nc1ncccc1-c1nc2cccnc2n1-c1cccc(CNC(=O)c2ccccc2)c1 [8g],IC50,[3],13 µM
Nc1ncccc1-c1nc2cccnc2n1-c1ccc(CNCc2ccccc2)cc1 [8h],IC50,[3],0.26 µM
O=C(O)/C=C(/CCc1ccc2ccccc2c1)c1ccccc1 [12Z],EC50,[4],8 µM
same,T…,[5],8.2 kJ/mol
same,…G,[5],-28.7 kJ/mol
same,…H…,[5]; the 35th table c9,58.3%
Nc1ncccc1-c1nc2cc(C3CCCC3)cnc2n1-c1ccc(CNC(=O)c2ccccc2)cc1 [12d],IC50,[6],> 100 µM
Nc1ncccc1-c1nc2cc(-c3cccnc3)cnc2n1-c1ccc(CNC(=O)c2cccc(F)c2)cc1 [12g],IC50,[6],0.4 µM
Cc1ccc2nc(NCCN)c3ncc(C)n3c2c1 [BMS-345541],NF-κB dependent transcription in mice,[7],block NF-κB dependent transcription
Cn1cnc2c(F)c(Nc3ccc(Br)cc3F)c(C(=O)NOCCO)cc21 [Binimetinib],pIC50,[8],7.9
same,pIC50,[9],7.9
O=C(Nc1nccs1)C(c1cc(F)ccc1O)N1Cc2ccccc2C1=O (centres unmarked) [EAI045],inhibition of any other kinases in screening panels,[10],≤ 20%
Nc1ccc(/C=C/C(=O)NCc2cc3cc(-c4ccc(C(=O)N5CCC(F)(F)CC5)cc4)cc(-c4ccc(F)cc4)c3o2)cn1 [KPT-9274],Molt-4 xenografts,[11],induces shrinkage
O=S(=O)(Nc1nc2ccc(Cl)cc2s1)c1cc2ccccc2s1 [RS2],Kd,[12],9 µM
CO[C@H]1C[C@@H]2CC[C@@H](C)[C@@](O)(O2)C(=O)C(=O)N2CCCC[C@H]2C(=O)O[C@H]([C@H](C)C[C@@H]2CC[C@@H](O)[C@H](OC)C2)CC(=O)[C@H](C)/C=C(\C)[C@@H](O)[C@@H](OC)C(=O)[C@H](C)C[C@H](C)/C=C/C=C/C=C/1C [Sirolimus],MERS-COV infection of Huh7 cells,[13],inhibits MERS-COV infection
CC(=O)Nc1cccc(-n2c(=O)n(C3CC3)c(=O)c3c(Nc4ccc(I)cc4F)n(C)c(=O)c(C)c32)c1 [Trametinib],Absorption/distribution of an oral dose of trametinib tablet,,72%
O=C(O)c1cc(-c2cccc(C(F)(F)F)c2)nc2ccccc12 [compound 34],IC50,[14],0.00033 µM
same,IC50,[15],26.5 µM
same,Ki,[15]; read-out: Calculated K…,507 µM
same,Sol (pH 6.5),[16],190 μg/mL
O=C1NC(=O)[C@@H](c2cn3c4c(cccc24)CCC3)[C@@H]1c1c[nH]c2ccccc12 [tivantinib],growth of carcinoma xenografts,[17],inhibition of growth
Skepinone-B,residence times,[18],150 s
